pIC50: −log10 of the molar value. Activity calls are given as the source filed them. The calls are words filed in the database; no cut-off is given here.
What was measured:
[1] = target: Lysine-specific histone demethylase 1A (Homo sapiens, UniProt O60341)
Description: Inhibition of recombinant LSD1 (157 to 852) (unknown origin) transfected in Escherichia coli BL21(DE) by fluorescence assay

MGC-803 [2] = assay: Induction of apoptosis in human MGC803 cells assessed as crescent nuclei at 2 to 8 uM after 24 hrs by Hoechst 33258 staining-based fluorescence microscopy; format: functional, cell-based
MGC-803 [3] = assay: Induction of apoptosis in human MGC803 cells assessed as chromatin shrinkage at 2 to 8 uM after 24 hrs by Hoechst 33258 staining-based fluorescence microscopy; format: functional, cell-based
MGC-803 [4] = assay: Induction of apoptosis in human MGC803 cells assessed as formation of apoptotic bodies at 2 to 8 uM after 24 hrs by Hoechst 33258 staining-based fluorescence microscopy; format: functional, cell-based
MGC-803 [5] = assay: Induction of apoptosis in human MGC803 cells assessed as formation of apoptotic bodies after 48 hrs by annexinV-FITC/propidium iodide staining-based flow cytometry; format: functional, cell-based
[6] = Induction of apoptosis in human MGC803 cells assessed as upregulation of Bax expression after 48 hrs by Western blotting analysis; format: functional, cell-based; details: MGC-803
MGC-803 [7] = assay: Induction of apoptosis in human MGC803 cells assessed as down regulation of Bcl2 expression after 48 hrs by Western blotting analysis; format: functional, cell-based
Mus musculus [8] = assay: Toxicity in nude BALB/C mouse xenografted with human MGC803 cells assessed as weight loss at 50 to 100 mg/kg, po; format: organism-based, MGC-803; parameters: dose 50-100 mg/kg, route oral; details: in vivo
Mus musculus [9] = assay: Upregulation of Bax expression in nude BALB/C mouse xenografted with human MGC803 cells at 50 to 100 mg/kg, po administered for 21 days; format: functional, organism-based; details: MGC-803
Mus musculus [10] = assay: Downregulation of Bcl2 expression in nude BALB/C mouse xenografted with human MGC803 cells at 50 to 100 mg/kg, po administered for 21 days; format: functional, organism-based; details: MGC-803
MGC-803 [11] = assay: Antimigratory activity against human MGC803 cells at >5 uM after 48 hrs by transwell assay; format: functional, cell-based
MGC-803 [12] = assay: Antiinvasive activity against human MGC803 cells at >5 uM after 48 hrs by matrigel-coated transwell assay; format: functional, cell-based
[13] = Antimetastatic activity in mouse B16F10 cells […] in C57BL/6 mouse assessed as lung metastatic nodule at 50 mg/kg, po administered for 14 days (reference value: 26.6 +/- 8.7); format: functional, B16-F10
[14] = Antimetastatic activity in mouse B16F10 cells […] in C57BL/6 mouse assessed as lung metastatic nodule at 100 mg/kg, po administered for 14 days (reference value: 26.6 +/- 8.7); format: functional, B16-F10
MGC-803 [15] = assay: Antiinvasive activity against human MGC803 cells at 1.25 to 5 uM after 48 hrs by wound healing assay; format: functional, cell-based
[16] = target: T1, Amine oxidase [flavin-containing] A (Homo sapiens, UniProt P21397)
T1 sequence (P21397 whole entry): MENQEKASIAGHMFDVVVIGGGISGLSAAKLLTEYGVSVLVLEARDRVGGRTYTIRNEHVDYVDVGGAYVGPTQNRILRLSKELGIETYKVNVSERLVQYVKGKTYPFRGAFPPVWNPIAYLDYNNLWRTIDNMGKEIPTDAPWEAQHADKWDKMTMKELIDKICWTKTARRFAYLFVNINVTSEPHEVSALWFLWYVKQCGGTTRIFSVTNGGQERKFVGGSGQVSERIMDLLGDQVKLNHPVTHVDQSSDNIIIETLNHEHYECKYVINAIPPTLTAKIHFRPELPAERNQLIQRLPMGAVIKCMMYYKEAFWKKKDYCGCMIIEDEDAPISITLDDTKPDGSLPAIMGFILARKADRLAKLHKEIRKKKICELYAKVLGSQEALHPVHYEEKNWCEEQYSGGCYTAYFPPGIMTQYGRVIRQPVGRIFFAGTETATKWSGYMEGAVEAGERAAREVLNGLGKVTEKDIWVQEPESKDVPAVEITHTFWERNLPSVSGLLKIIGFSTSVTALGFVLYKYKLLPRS
Description: Inhibition of MAOA (unknown origin)

[17] = target: T2, Amine oxidase [flavin-containing] B (Homo sapiens, UniProt P27338)
T2 sequence (P27338 whole entry): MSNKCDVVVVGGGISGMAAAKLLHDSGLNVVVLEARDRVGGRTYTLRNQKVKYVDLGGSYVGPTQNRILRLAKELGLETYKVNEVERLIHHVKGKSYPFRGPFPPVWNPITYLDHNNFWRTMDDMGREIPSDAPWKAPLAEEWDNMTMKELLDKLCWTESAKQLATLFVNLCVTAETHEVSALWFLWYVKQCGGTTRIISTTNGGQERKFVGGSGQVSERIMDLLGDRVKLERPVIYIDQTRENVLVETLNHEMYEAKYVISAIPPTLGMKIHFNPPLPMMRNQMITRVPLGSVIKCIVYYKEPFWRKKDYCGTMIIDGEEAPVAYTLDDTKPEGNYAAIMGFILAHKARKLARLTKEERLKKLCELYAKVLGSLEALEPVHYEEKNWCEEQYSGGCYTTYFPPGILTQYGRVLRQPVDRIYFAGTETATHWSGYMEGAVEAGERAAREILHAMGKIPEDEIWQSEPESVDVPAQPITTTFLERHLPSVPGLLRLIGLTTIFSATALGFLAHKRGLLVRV
Description: Inhibition of MAOB (unknown origin)

MGC-803 [18] = details: Homo sapiens, 1.25 to 5 uM
Description: Inhibition of epithelial-mesenchymal transition in human MGC803 cells assessed as down regulation of N-Cadherin at 1.25 to 5 uM after 48 hrs by Western blotting analysis

MGC-803 [19] = assay: cells; details: Homo sapiens, MGC-803, 72 h
Description: Cytotoxicity against human MGC803 cells after 72 hrs by MTT assay

cells [20] = details: Homo sapiens, HGC-27, 72 h
Description: Cytotoxicity against human HGC27 cells after 72 hrs by MTT assay

cells [21] = details: Homo sapiens, SGC-7901, 72 h
Description: Cytotoxicity against human SGC7901 cells after 72 hrs by MTT assay

cells [22] = details: Homo sapiens, GES1, 72 h
Description: Cytotoxicity against human GES-1 cells after 72 hrs by MTT assay

MGC-803 [23] = assay: animal or person; details: Mus musculus, MGC-803, po, 504 h, read-out: TGI
Description: Antitumor activity against human MGC803 cells xenografted in nude BALB/C mouse assessed as reduction of tumor weight at 50 mg/kg, po administered for 21 days relative to vehicle-treated control

MGC-803 [24] = assay: animal or person; details: Mus musculus, MGC-803, po, 504 h, read-out: TGI; remark: listed apart in the source
Description: Antitumor activity against human MGC803 cells xenografted in nude BALB/C mouse assessed as reduction of tumor weight at 100 mg/kg, po administered for 21 days relative to vehicle-treated control

C#CCSc1nc(Nc2ccc(C)cc2)c(C#N)c(-c2ccccc2)n1
pIC50 [1]: < 3.90

N#Cc1c(Cl)nc(SCc2cn(Cc3ccccc3Cl)nn2)nc1-c1ccc(Cl)cc1
pIC50 [1]: < 3.90

C#CCSc1nc(Nc2cccc(C(F)(F)F)c2)c(C#N)c(-c2ccc(Cl)cc2)n1
pIC50 [1]: < 3.90

C#CCSc1nc(Nc2ccc([N+](=O)[O-])cc2)c(C#N)c(-c2ccccc2)n1
pIC50 [1]: < 3.90

C#CCSc1nc(NNC(=N)N)c(C#N)c(-c2ccc([N+](=O)[O-])cc2)n1
pIC50 [1]: < 3.90

C#CCSc1nc(Cl)c(C#N)c(-c2ccc([N+](=O)[O-])cc2)n1
pIC50 [1]: < 3.90

C#CCSc1nc(Nc2ccc(Cl)cc2)c(C#N)c(-c2ccc(Br)cc2)n1
pIC50 [1]: < 3.90

C#CCSc1nc(Nc2ccc(OC)cc2)c(C#N)c(-c2ccccc2)n1
pIC50 [1]: < 3.90

C#CCSc1nc(Nc2cccc(C(F)(F)F)c2)c(C#N)c(-c2cc(OC)c(OC)c(OC)c2)n1
pIC50 [1]: < 3.90

C#CCSc1nc(Nc2ccc(Cl)cc2)c(C#N)c(-c2ccccc2)n1
pIC50 [1]: < 3.90

C#CCSc1nc(Nc2cccc(Cl)c2)c(C#N)c(-c2ccccc2)n1
pIC50 [1]: < 3.90

C#CCSc1nc(Nc2ccc(OC)cc2)c(C#N)c(-c2cc(OC)c(OC)c(OC)c2)n1
pIC50 [1]: < 3.90

C#CCSc1nc(Nc2cccc(C(F)(F)F)c2)c(C#N)c(-c2ccccc2)n1
pIC50 [1]: < 3.90

C#CCSc1nc(Nc2ccccc2Cl)c(C#N)c(-c2ccccc2)n1
pIC50 [1]: < 3.90

COc1cc(-c2nc(SCc3ccc(F)cc3)nc(NNC(N)=S)c2C#N)cc(OC)c1OC
pIC50 [1]: < 3.90

C#CCSc1nc(Cl)c(C#N)c(-c2cccc(Cl)c2)n1
pIC50 [1]: < 3.90

C#CCSc1nc(NNC(N)=S)c(C#N)c(-c2cc(OC)c(OC)c(OC)c2)n1
Activity (MGC-803 [2]): Active
Activity (MGC-803 [3]): Active
Activity (MGC-803 [4]): Active
Activity (MGC-803 [5]): Dose-dependent effect
Activity [6]: Dose-dependent effect
Activity (MGC-803 [7]): Dose-dependent effect
Activity (Mus musculus [8]): Non-toxic
Activity (Mus musculus [9]): Active
Activity (Mus musculus [10]): Active
Activity (MGC-803 [11]): Active
Activity (MGC-803 [12]): Active
Activity [13]: 12.1
Activity [14]: 8.4
Activity (MGC-803 [15]): Active
pIC50 [16]: < 2.90
pIC50 [17]: < 2.90
inhibition (MGC-803 [18]): Active
pIC50 (MGC-803 [19]): 5.40
pIC50 (cells [20]): 5.05
pIC50 (cells [21]): 4.17
pIC50 (cells [22]): 4.23
inhibition in vivo at 50 mg/kg (MGC-803 [23]): 55.1%
inhibition in vivo at 100 mg/kg (MGC-803 [24]): 72.1%

C#CCSc1nc(Nc2ccc(OC)cc2)c(C#N)c(-c2ccc(Cl)cc2)n1
pIC50 [1]: < 3.90

C#CCSc1nc(Nc2ccc(F)cc2)c(C#N)c(-c2ccccc2)n1
pIC50 [1]: < 3.90

Source: ChEMBL document CHEMBL3414475, “Design, synthesis, and structure-activity relationship of novel LSD1 inhibitors based on pyrimidine-thiourea hybrids as potent, orally active antitumor agents” (J Med Chem, 2015)
